Laboratory results as given in US7250267B2, “Cross-reactive sensors” (priority 2001, dated 2007).

Assays:
Assay type in all cases: biochemical
[1] = target: T1, Acetylcholine Esterase from Electrophorus electricus (Electrophorus electricus, UniProt O42275); experiment: Esterase hydrolysis microtiter plate assay with fluorescein pH indicator, acetylcholine esterase; conditions: for hydrolysis reaction slope after three months / initial slope range and standard deviation of hydrolysis reaction: with acetylcholine esterase; for initial slope range and standard deviation of hydrolysis reaction: measured initially
T1 construct: purchased Sigma and Fluka
T1 sequence (O42275 24-633): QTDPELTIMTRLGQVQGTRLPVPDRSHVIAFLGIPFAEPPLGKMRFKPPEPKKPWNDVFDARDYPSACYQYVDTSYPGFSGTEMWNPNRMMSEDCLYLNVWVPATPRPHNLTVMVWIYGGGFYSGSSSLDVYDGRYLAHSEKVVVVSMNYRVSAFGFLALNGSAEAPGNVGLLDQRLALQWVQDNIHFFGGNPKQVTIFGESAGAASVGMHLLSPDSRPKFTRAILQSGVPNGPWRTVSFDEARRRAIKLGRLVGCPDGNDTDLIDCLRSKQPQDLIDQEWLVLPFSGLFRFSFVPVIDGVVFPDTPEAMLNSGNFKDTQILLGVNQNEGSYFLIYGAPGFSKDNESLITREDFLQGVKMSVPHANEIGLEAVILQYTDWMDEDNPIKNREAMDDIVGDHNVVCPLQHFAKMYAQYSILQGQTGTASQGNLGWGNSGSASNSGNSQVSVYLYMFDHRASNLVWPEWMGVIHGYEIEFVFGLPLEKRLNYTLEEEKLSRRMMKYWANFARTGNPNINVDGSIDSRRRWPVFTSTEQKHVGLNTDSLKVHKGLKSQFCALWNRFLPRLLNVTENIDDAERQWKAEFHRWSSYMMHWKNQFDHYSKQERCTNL
Procedure: (§1) A fluorescent pH indicator, fluorescein, was added to the reaction mixture to measure the change in acidity resulting from the hydrolysis reaction in a 96-well microtiter plate format. The fluorescence response was monitored over time to give a temporal pH-induced fluorescence pattern. […] Esterases have been used to test ester chirality (Janes et al., Chem. Eur. J, 1998, 4, 2324) and as synthetic tools for efficiently hydrolyzing a variety of esters (Ohno et al., Org. React, 1989, 37, 1). General Procedure for Enzyme-Based Sensor Array:
(§2) First, solutions of desired substrates (certain exemplary substrates are depicted in FIGS. 4 and 5) were made from 100 mM of substrate in CH3CN (or buffer, depending on the solubility of the ester). The analyte concentration was chosen to be at most one-fifth of the Michaelis constant (kM) for the esterases. All solvents and substrates were purchased from Aldrich, Sigma, and Fluka Chemical Companies and used as received.
(§3) The microtiter plate assay provides a rapid and reproducible system to measure the hydrolysis reactions. In the present example, the microtiter plate assay contained the nine esterases in different columns and the ester analytes in the different rows. Each esterase catalyzed hydrolysis reaction was addressed individually to monitor the kinetics by scanning each well independently. After preparation of the desired solutions, to the microtiter plate was first pipetted (using a pipetman) 100 μL of the substrate solution into each well. […] The plate was allowed to shake for 10 seconds before the first reading. The reader reads 15 second intervals while shaking before each read. The plate was monitored for 90 seconds by a Molecular Devices, Spectra Max Gemini, fluorescence microtiter plate reader. The reader scans each row and column of the microtiter plate reading each well individually. Therefore, each enzyme was monitored individually and the enzyme's kinetics were measured at the same point in time. […] The MATLAB program analyzes the individual interactions and separates them into clusters, which can indicate the ability of the sensor to distinguish the analytes.

nine esterases = experiment: Esterase hydrolysis microtiter plate assay, nine-esterase array
Procedure: as §1
(§4) First, solutions of desired substrates (certain exemplary substrates are depicted in FIGS. 4 and 5) were made from 100 mM of substrate in CH3CN (or buffer, depending on the solubility of the ester). […]
(§5) The microtiter plate assay provides a rapid and reproducible system to measure the hydrolysis reactions. […] The plate was allowed to shake for 10 seconds before the first reading. The reader reads 15 second intervals while shaking before each read. The plate was monitored for 90 seconds by a Molecular Devices, Spectra Max Gemini, fluorescence microtiter plate reader. The reader scans each row and column of the microtiter plate reading each well individually. Therefore, each enzyme was monitored individually and the enzyme's kinetics were measured at the same point in time. […]

[2] = tested on: Esterase from Bacillus thermoglucosidasius (denoted bacteria-2); experiment: Esterase hydrolysis microtiter plate assay with fluorescein pH indicator, bacteria 2 esterase
Procedure: as §1, §4, §5

[3] = tested on: Esterase from Bacillus sp. (denoted bacteria-1); experiment: Esterase hydrolysis microtiter plate assay with fluorescein pH indicator, bacteria esterase 1; conditions: for Km / Vmax: Lineweaver-Burk plot, various ester concentrations, bacteria esterase 1
Procedure: as §1, §2
as §3, with “In” for “The microtiter plate assay provides a rapid and reproducible system to measure the hydrolysis reactions. In”
For mixture analysis, concentration runs of four esters, PA, ethyl valerate (EV), methyl nicotinate (MNI) and methyl 6-methyl nicotinate (MMNI) were performed with the nine esterases. The rates of the esterase reaction were plotted on a Lineweaver-Burk plot to determine the Km and Vmax and were used to identify subsequent mixtures of the four esters.

`CC(=O)Oc1ccccc1` [PA, Phenyl acetate] was tested. Which “hydrolysis reaction slope after three months” value (from here on “hydrolysis reaction slope”) [1] did it give?
The value was −1.5×10^3 fluorescence units/time.

And the “initial slope range and standard deviation of hydrolysis reaction” value [1]?
The value was “(−1.4±0.2)×10^2 fluorescence units/time”.

And the “relative rate of hydrolysis among all of the esters” value (nine esterases)?
The value was “hydrolyzed the fastest”.

For `COC(=O)[C@H](C)N` [LM, L-alanine methyl ester], which “hydrolysis by bacteria 2 esterase” value [2] is on record?
Its value is “hydrolyzes only LM”.

What about the “hydrolysis by bacteria 1 esterase” value [3] of the same compound?
The value was “hydrolyzed”.

What about the “hydrolysis by acetylcholine esterase” value [1] of the same compound?
The value was “hydrolyzed”.

How did the “hydrolysis by bacteria 2 esterase” value [2] turn out when `COC(=O)[C@@H](C)N` [DM, D-alanine methyl ester] was run?
Its value is “not DM”.

And the “hydrolysis by bacteria 1 esterase” value [3]?
Its value is “hydrolyzed”.

What about the “hydrolysis by acetylcholine esterase” value [1] of the same compound?
The value was “hydrolyzed”.

`CCCCC(=O)OCC` [ethyl valerate, Ethyl valerate] was tested. Which Km [3] did it give?
The Km was 1000 µM.

What about the Vmax [3] of the same compound?
Its Vmax is 2e-07 M/s.

Which Km [3] does the source give for `COC(=O)c1ccc(C)nc1` [methyl 6-methyl nicotinate, Methyl 6-methyl nicotinate] here?
The Km was 2600 µM.

And the Vmax [3]?
Its Vmax is 4e-07 M/s.

With `CCCC(=O)OC` [MB, methyl butyrate] as the compound, how does the “hydrolysis reaction slope” value [1] read?
Its value is −1.3×10^2 fluorescence units/time.

And the “initial slope range and standard deviation of hydrolysis reaction” value [1]?
Its value is “(−1.3±0.01)×10^2 fluorescence units/time”.

For `CCCC(=O)OCC` [BA, Ethyl butyrate], which “hydrolysis reaction slope” value [1] is on record?
The value was −3.2×10^2 fluorescence units/time.

And the “initial slope range and standard deviation of hydrolysis reaction” value [1]?
The value was “(−2.9±1.6)×10^3 fluorescence units/time”.
